Paper PMC10458470 (Molecules, 2023)
Where two headings read alike, the source gives them in different places.

How the values were obtained:
Test in all cases: UV-Vis absorption titration (Kb) and fluorescence quenching (KSV […] ^-1)
Assay type in all cases: binding
[1] = target: T1, human serum albumin (HSA) (Homo sapiens, UniProt P02768); conditions: read-out: UV-Vis absorption titration (Kb) and fluorescence quenching (KSV 5.6 × 10^6 M^-1) (converted)
T1 construct: gene ALB

[2] = target: T1, human serum albumin (HSA); conditions: read-out: UV-Vis absorption titration (Kb) and fluorescence quenching (KSV 4.6 × 10^6 M^-1) (converted)
[3] = target: T1, human serum albumin (HSA); conditions: read-out: UV-Vis absorption titration (Kb) and fluorescence quenching (KSV 4 × 10^6 M^-1) (converted)

T1 sequence (P02768 25-609): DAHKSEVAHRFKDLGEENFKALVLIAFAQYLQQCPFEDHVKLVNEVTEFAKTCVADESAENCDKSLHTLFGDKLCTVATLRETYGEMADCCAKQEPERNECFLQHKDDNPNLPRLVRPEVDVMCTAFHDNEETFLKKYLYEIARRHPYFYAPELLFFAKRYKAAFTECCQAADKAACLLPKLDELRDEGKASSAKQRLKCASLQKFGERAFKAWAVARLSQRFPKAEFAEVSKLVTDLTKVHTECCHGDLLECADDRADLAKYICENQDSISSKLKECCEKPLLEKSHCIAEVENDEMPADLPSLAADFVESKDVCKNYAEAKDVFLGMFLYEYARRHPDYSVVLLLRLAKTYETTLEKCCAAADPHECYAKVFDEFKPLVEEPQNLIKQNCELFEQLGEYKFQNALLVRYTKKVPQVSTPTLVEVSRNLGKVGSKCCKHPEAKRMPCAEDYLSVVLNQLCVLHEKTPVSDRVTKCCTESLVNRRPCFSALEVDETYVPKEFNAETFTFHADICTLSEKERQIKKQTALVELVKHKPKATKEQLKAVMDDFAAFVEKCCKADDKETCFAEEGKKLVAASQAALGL

[Cu(NTZ)2Cl2] [NTZ-Cu(II)]
Kd [1]: 5.35 µM

[Ni(NTZ)2Cl2] [NTZ-Ni(II)]
Kd [2]: 20.9 µM

[Zn(NTZ)2Cl2] [NTZ-Zn(II)]
Kd [3]: 13.4 µM
